Source: patent EP0385952A2, “Use of a naphthalenmethanamino derivative as antiinflammatory agent and pharmaceutical compositions containing it” (SANDOZ AG, priority 1989, dated 1990)
pIC50: −log10 of the molar value. Like-named read-outs stand apart in the source and are kept apart here. Marks after values point to notes of the source that are not given here.

Columns and labels:
neutrophils = experiment: Neutrophil exocytosis assay (FMLP-stimulated enzyme release); assay type: cell-based
human keratinocytes = experiment: Inhibition of TPA-stimulated PGE₂ synthesis of human keratinocytes; assay type: cell-based; conditions: Keratinocyte, TPA 100 ng/ml, 24 hours, read-out: IC₅₀, inhibition of TPA-stimulated PGE₂ synthesis
Method: Cultures of human keratinocytes are obtained by trypsinisation of neonatal human foreskins. The keratinocyte cultures are grown in a supplemented keratinocyte growth medium (KGM; Clonetics) using culture flasks. Passages 3-5 of 80-90 % confluent keratinocytes are resuspended in KGM at a concentration of 1x10⁵ cells/ml and 0.1 ml are plated into 96 well-microtiter plates in the presence of test compound. For the stimulation of PGE₂ release human keratinocytes or the HACAT human skin keratinocyte cell line [P. Boukamp et al., J. Cell Biol. 106 (1988) 761-771] are grown to confluence in KGM medium and stimulated with TPA (100 ng/ml) for 24 hours. Conditioned media are centrifuged and concentrations of PGE₂ are determined using a ¹²⁵I radioimmunoassay (NEN, Boston, Mass.). Each sample is assayed in duplicate.

NMRI mice = experiment: Cantharidin-induced pinnal swelling in mice (irritant contact dermatitis, 2.1.1.); assay type: in vivo; conditions: epicutaneous, pinnal weight
Method: Skin irritation with arachidonic acid or cantharidin is often used to experimentally induce inflammation in order to evaluate the anti-inflammatory activity of a compound [see e.g. Inflammation 8 (1984) 134-135; 10 (1986) 205-214]. NMRI mice (8 animals per group) receive 10 µl of a 10 % solution of arachidonic acid [J.M. Young et al., J. Invest. Derm. 82 (1986) 367-371] in acetone or, respectively, 0.08 % cantharidin [K.E. Swingle et al., Arch. Int. Pharmacodyn. Ther. 254 (1981) 168-176] in acetone applied to the medial and lateral surface of the right external ear. Treatment is performed either prophylactically 30 minutes before irritation (arachidonic acid) or, respectively, either simultaneously with the application of irritant solution or therapeutically 20 minutes after irritation (cantharidin), by a single epicutaneous application of the test compound dissolved in a mixture of N,N-dimethylacetamide, acetone and alcohol (2:2:4). The evaluation of the test group is effected by comparison with a control group of animals having received on the right ear lobe only the carrier substance or the irritant solution. The animals are killed 1.5 hours (arachidonic acid) or, respectively, 17 hours (cantharidin) after application of the irritant and efficacy in assessed by determination of the differences in auricular weight. Differences in weights (D) of right (involved) and left (uninvolved) pinnae of animals treated with test compound and arachidonic acid or cantharidin (T-group) are compared with differences in mice treated with arachidonic acid only or cantharidin only (C-group). Efficacy (%) is calculated according to the equation: [formula]

[1] = system: Macrophages isolated from the bone marrow of mice; experiment: Inhibition of Con A-stimulated plasminogen activator release; assay type: cell-based; conditions: Mus musculus, Macrophage; Con A 100 µg/ml, 24 hours; read-out: IC₅₀, Con A-stimulated plasminogen activator release
Method: Macrophages 10 to 14 days old isolated from the bone marrow of mice are incubated in monolayers with the test compound in the presence of Concanavalin A (Con A) (100 µg/ml) as soluble stimulant. After 24 hours the cell-free medium is collected and macrophage activation is investigated biochemically as the extent of plasminogen activator release, assayed photometrically as the plasminogen-dependent amidolysis of D-Val-Phe-Lys-4-nitroanilide according to the principles described in J.C. Drapier et al., Biochemie 61 (1979) 463-471. Cell viability is assayed by measurement of lactate dehydrogenase release according to the method of H.U. Bergmeyer and E. Bernt, Methoden der Enzymatischen Analyse, 3. Auflage, Verlag Chemie (1974) 612-615, adapted as a kinetic assay using microtiter plates. All cultures are checked microscopically for qualitative morphological modification.

5-lipoxygenase = target: T1, 5-lipoxygenase (Homo sapiens, UniProt P09917); experiment: 5-lipoxygenase inhibition (neutrophil functions); assay type: cell-based; conditions: read-out: IC₅₀ for 5-lipoxygenase
T1 construct: endogenous in cells
T1 sequence (P09917 1-674): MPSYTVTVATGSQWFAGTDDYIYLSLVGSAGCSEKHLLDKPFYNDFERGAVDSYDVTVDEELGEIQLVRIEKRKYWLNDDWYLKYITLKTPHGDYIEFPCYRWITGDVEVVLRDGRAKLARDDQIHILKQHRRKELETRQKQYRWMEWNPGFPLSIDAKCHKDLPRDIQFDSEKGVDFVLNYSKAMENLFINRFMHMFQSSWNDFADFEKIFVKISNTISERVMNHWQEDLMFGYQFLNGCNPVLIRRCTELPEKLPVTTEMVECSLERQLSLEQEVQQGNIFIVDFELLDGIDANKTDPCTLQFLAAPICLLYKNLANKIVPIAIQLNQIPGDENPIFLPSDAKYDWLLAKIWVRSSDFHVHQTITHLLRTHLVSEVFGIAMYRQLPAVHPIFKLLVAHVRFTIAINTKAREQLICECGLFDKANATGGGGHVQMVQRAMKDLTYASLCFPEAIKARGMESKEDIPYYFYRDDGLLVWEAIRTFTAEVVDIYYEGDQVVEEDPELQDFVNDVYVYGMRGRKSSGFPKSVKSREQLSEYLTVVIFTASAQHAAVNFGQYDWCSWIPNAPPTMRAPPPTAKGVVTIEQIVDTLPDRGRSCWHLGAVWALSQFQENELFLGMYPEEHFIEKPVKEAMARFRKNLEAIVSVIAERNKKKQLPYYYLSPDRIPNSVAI

`CN(C/C=C/c1ccc(O)cc1)Cc1cccc2ccccc12` [compound of the invention, (E)-N-methyl-N-[3-(4-hydroxyphenyl)-2-propenyl]-1-naphthalene-methanamine] gave a pIC50 (neutrophils; read-out: IC₅₀ for FMLP-stimulated release of azurophil granule enzymes) of less than 4.00, a pIC50 (neutrophils; read-out: IC₅₀ for FMLP-stimulated release of lysosomal enzymes) of less than 4.00 and a pIC50 (neutrophils; read-out: IC₅₀ for FMLP-stimulated release of specific granule enzymes) of less than 4.00. For the same molecule, the pIC50 (human keratinocytes) was 5.52 to 6.00, the “Efficacy (%)” value (NMRI mice; simultaneous, test concentration 1.2 %) was 26% and the “Efficacy (%)” value (NMRI mice; simultaneous, test concentration 3.6 %) was 52** %. For the same molecule, the “Efficacy (%)” value (NMRI mice; therapeutic, test concentration 1.2 %) was 25%, the “Efficacy (%)” value (NMRI mice; therapeutic, test concentration 3.6 %) was 50** % and the pIC50 [1] was 5.74. For the same molecule, the pIC50 (5-lipoxygenase) was 4.36.
